In one data set the target is wild type c-kit (Homo sapiens (Human), UniProt P10721). Briefly: MSD Phospho c-Kit (Tyr721) Assay Whole Cell Lysate Kit in SCF-stimulated M-07e cells (pKIT assay, marked *). It is filed as cell-based. The following applies: Meso Scale Discovery (MSD) assay (values marked *). As to the method:
The ability of compounds of the disclosure (described herein as test compounds) to inhibit autophosphorylation of wild type c-kit was measures using either a PathScan phospho c-kit (Tyr719) sandwich ELISA (CST #7298) or a Phospho c-Kit (Tyr721) Assay Whole Cell Lysate Kit (MSD: 515DPD/catalog number K15119D-2).
For the MSD Phospho c-Kit (Tyr721) Assay Whole Cell Lysate Kit: M-07e cells were maintained in Iscove's Modified Dulbecco's Medium (IMDM) media supplemented with 10% FBS, 5 ng/ml granulocyte-macrophage colony-stimulating factor (GM-CSF) and 100 units/mL Penicillin-Streptomycin, and grown in a 37° C., 5% CO2 in a humidified tissue culture incubator. M-07e cells were washed with phenol red-free, serum-free, GM-CSF-free IMDM and seeded in the same media at 100,000 cells well in a volume of 50 ul in a 96-well U-bottom plate. The cells were incubated for 4 hours, followed by the addition of test compound at a final DMSO concentration of 0.25% for 60 min at 37° C. to generate an 8-point dose concentration series of test compounds. The cells were stimulated with 50 ng/ml human SCF for 10 min at room temperature. Cells were then lysed by the addition of 16.5 ul of PerkinElmer 5× AlphaLISA Lysis Buffer supplemented with Cell Signaling Technologies protease/phosphatase inhibitor. Lysis was encouraged by shaking at 4° C. for 30 minutes.
25 ul of lysate was transferred to the MSD plate and the plate was shaken at 700 rpm at room temperature for one hour, followed by washing 3 times with Tris wash buffer. Next, 25 ul of detection antibody solution (diluted from 50× stock in antibody dilution buffer) was added. After shaking at 700 rpm at room temperature for one hour, the plate was washed 3 times with Tris wash buffer. The plate was then read on MSD Sector Imager immediately after 150 ul of reading buffer added to each well.
An IC50 was calculated using a 4-parameter logistic nonlinear regression.

Data set [1] addresses human P-glycoprotein (P-gp, MDR1) (Homo sapiens (Human), UniProt P08183). Briefly: MDCK-MDR1 cell monolayer drug transport assay (P-gp efflux ratio). The note with it: pH 7.4, MDCK-MDR1 cells, 1 uM concentration of compound, read-out: Pgp Efflux Ratio, 1 uM. It is filed as in vitro ADME. Summed up: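 P-gp substrate potential tested in MDCK-MDR1 monolayers on Transwell supports, cultured 4-8 days; monolayers with TEER <42 ohms·cm2 discarded. Transport run in HBSS (10 mM HEPES, pH 7.4) at 37° C with compound working solution at 1 μM.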

Sequence of human P-glycoprotein (P-gp, MDR1) (P08183 whole entry): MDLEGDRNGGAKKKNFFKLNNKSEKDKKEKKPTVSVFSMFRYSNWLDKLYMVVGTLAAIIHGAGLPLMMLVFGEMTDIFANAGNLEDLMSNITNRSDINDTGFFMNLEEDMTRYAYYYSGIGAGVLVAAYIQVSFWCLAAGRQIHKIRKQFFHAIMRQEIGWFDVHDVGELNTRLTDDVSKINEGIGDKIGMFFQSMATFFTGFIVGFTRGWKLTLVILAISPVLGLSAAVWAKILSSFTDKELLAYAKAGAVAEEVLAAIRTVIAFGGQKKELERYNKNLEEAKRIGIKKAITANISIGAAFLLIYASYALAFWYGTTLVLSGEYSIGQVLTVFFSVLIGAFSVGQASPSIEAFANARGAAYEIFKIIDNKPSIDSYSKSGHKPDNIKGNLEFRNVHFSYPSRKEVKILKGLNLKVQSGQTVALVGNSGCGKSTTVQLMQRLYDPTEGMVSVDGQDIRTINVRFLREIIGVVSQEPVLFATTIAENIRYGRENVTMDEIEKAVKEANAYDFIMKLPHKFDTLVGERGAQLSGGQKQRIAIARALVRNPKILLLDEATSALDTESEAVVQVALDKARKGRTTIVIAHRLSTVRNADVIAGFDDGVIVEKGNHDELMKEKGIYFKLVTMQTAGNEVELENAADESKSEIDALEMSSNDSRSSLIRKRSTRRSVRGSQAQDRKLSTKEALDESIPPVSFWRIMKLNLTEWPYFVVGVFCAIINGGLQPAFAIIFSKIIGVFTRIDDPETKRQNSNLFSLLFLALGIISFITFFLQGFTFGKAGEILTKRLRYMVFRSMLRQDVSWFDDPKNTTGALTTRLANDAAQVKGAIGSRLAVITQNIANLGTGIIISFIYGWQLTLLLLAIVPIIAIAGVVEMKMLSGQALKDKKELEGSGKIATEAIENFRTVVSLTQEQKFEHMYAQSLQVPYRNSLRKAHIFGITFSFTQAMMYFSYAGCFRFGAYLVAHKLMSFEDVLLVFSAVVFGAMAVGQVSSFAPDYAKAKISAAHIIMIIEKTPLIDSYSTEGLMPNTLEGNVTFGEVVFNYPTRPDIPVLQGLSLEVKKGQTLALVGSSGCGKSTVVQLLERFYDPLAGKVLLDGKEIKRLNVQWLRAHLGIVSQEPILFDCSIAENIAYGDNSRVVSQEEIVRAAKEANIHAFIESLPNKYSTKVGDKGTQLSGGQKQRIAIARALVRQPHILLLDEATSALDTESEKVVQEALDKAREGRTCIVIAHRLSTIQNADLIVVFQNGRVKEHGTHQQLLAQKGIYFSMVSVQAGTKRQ
Sequence of wild type c-kit (P10721 26-976): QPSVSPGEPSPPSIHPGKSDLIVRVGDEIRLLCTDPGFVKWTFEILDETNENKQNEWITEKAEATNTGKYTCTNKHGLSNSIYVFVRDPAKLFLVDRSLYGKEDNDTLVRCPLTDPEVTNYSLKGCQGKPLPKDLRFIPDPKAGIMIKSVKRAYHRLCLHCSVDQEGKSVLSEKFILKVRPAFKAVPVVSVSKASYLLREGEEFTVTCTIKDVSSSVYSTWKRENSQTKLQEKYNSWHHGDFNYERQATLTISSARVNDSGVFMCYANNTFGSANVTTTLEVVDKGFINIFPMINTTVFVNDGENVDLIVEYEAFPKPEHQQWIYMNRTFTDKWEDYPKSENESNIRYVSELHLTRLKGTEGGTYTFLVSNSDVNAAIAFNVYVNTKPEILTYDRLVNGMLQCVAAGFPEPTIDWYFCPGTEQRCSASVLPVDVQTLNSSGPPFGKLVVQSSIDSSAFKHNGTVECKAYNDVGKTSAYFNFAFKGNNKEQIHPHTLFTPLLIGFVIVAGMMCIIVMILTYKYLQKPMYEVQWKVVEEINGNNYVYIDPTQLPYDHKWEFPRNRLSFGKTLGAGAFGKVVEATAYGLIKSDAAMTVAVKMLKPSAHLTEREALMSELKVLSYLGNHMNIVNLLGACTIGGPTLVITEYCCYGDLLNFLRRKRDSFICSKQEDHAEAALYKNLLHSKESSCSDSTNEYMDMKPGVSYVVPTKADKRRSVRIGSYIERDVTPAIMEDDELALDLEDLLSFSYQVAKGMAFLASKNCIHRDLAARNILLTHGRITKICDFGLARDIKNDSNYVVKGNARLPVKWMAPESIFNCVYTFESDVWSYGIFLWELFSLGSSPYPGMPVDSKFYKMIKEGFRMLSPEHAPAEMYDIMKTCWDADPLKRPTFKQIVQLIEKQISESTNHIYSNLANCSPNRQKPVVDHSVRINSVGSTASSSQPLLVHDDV

For `Cc1ccc(-c2nnn(C3CN(S(=O)(=O)CCO)C3)n2)cc1NC(=O)c1cnn2ccccc12` [Example 203, N-(5-(2-(1-((2-hydroxyethyl)sulfonyl)azetidin-3-yl)-2H-tetrazol-5-yl)-2-methylphenyl)pyrazolo[1,5-a]pyridine-3-carboxamide], it took 16.7 nM to reach half-maximal inhibition at wild type c-kit (IC50). The efflux ratio at 2 h, 1 µM in data set [1] was 12.8.

For the compound `Cc1ccc(-c2nnn([C@H]3C[C@H](C(F)(F)F)C3)n2)cc1NC(=O)c1cnn2ccc(-c3cn[nH]c3)cc12` [Example 44, N-(2-methyl-5-(2-((1r,3r)-3-(trifluoromethyl)cyclobutyl)-2H-tetrazol-5-yl)phenyl)-5-(1H-pyrazol-4-yl)pyrazolo[1,5-a]pyridine-3-carboxamide or N-(2-methyl-5-(2-((1s,3s)-3-(trifluoromethyl)cyclobutyl)-2H-tetrazol-5-yl)phenyl)-5-(1H-pyrazol-4-yl)pyrazolo[1,5-a]pyridine-3-carboxamide], the IC50 on wild type c-kit stood at 1.5 nM. For the same compound, in data set [1], the efflux ratio at 2 h, 1 µM amounted to 15.9.

`Cc1ccc(-c2nnn(C[C@H]3CC3(F)F)n2)cc1NC(=O)c1cnn2ccc(-c3cn[nH]c3)cc12` (single isomer, unassigned) [Example 55, (R)—N-(5-(2-((2,2-difluorocyclopropyl)methyl)-2H-tetrazol-5-yl)-2-methylphenyl)-5-(1H-pyrazol-4-yl)pyrazolo[1,5-a]pyridine-3-carboxamide or (S)—N-(5-(2-((2,2-difluorocyclopropyl)methyl)-2H-tetrazol-5-yl)-2-methylphenyl)-5-(1H-pyrazol-4-yl)pyrazolo[1,5-a]pyridine-3-carboxamide]: the IC50 on wild type c-kit worked out at 1.1 nM. Moreover, the efflux ratio at 2 h, 1 µM in data set [1] was 19.7.

Compound `Cc1ccc(-c2nnn(C3CN(S(C)(=O)=O)C3)n2)cc1NC(=O)c1cnn2ccc(C3CC3)cc12` [Example 50, 5-cyclopropyl-N-(2-methyl-5-(2-(1-(methylsulfonyl)azetidin-3-yl)-2H-tetrazol-5-yl)phenyl)pyrazolo[1,5-a]pyridine-3-carboxamide] had an IC50 against wild type c-kit of 8 nM. Besides, in data set [1], the efflux ratio at 2 h, 1 µM is 6.5.

On wild type c-kit, `Cc1ccc(-c2nnn(C3CC(F)(F)C3)n2)cc1NC(=O)c1cnn2ccc(-c3cn[nH]c3)cc12` [Example 198, N-(5-(2-(3,3-difluorocyclobutyl)-2H-tetrazol-5-yl)-2-methylphenyl)-5-(1H-pyrazol-4-yl)pyrazolo[1,5-a]pyridine-3-carboxamide] returned an IC50 of 1.7 nM. Besides, the efflux ratio at 2 h, 1 µM in data set [1] came to 16.6.

The compound `COCCS(=O)(=O)N1CC(c2nnn(-c3ccc(C)c(NC(=O)c4cnn5ccccc45)c3)n2)C1` [Example 189, N-(5-(5-(1-((2-methoxyethyl)sulfonyl)azetidin-3-yl)-2H-tetrazol-2-yl)-2-methylphenyl)pyrazolo[1,5-a]pyridine-3-carboxamide] yielded an IC50 on wild type c-kit of 4.9 nM.

Regarding `Cc1ccc(-n2nnc(C3CC3)n2)cc1NC(=O)c1cnn2ccccc12` [Example 152, N-(5-(5-cyclopropyl-2H-tetrazol-2-yl)-2-methylphenyl)pyrazolo[1,5-a]pyridine-3-carboxamide], 3.6 nM corresponded to half-maximal inhibition on wild type c-kit (IC50).

Compound `Cc1ccc(-n2nnc(C3CN(S(=O)(=O)C4CC4)C3)n2)cc1NC(=O)c1cnn2ccccc12` [Example 188, N-(5-(5-(1-(cyclopropylsulfonyl)azetidin-3-yl)-2H-tetrazol-2-yl)-2-methylphenyl)pyrazolo[1,5-a]pyridine-3-carboxamide] returned an IC50 on wild type c-kit of 2.9 nM.

For `COc1ccn2ncc(C(=O)Nc3cc(-c4nnn(C5CN(S(C)(=O)=O)C5)n4)ccc3C)c2c1` [Example 153, 5-methoxy-N-(2-methyl-5-(2-(1-(methylsulfonyl)azetidin-3-yl)-2H-tetrazol-5-yl)phenyl)pyrazolo[1,5-a]pyridine-3-carboxamide], the IC50 at wild type c-kit amounted to 4.5 nM. In data set [1], the efflux ratio at 2 h, 1 µM is 3.9.

Regarding `Cc1ccc(-c2nnn([C@H](C)C3CC3)n2)cc1NC(=O)c1cnn2ccccc12` (single isomer, unassigned) [Example 38, (S)-N-(5-(2-(1-cyclopropylethyl)-2H-tetrazol-5-yl)-2-methylphenyl)pyrazolo[1,5-a]pyridine-3-carboxamide or (R)-N-(5-(2-(1-cyclopropylethyl)-2H-tetrazol-5-yl)-2-methylphenyl)pyrazolo[1,5-a]pyridine-3-carboxamide], the midpoint of inhibition on wild type c-kit, the IC50, lay at 7.2 nM.

With `Cc1ccc(-c2nnn(C)n2)cc1NC(=O)c1cnn2ccc(-c3cn[nH]c3)cc12` [Example 43, N-(2-methyl-5-(2-methyl-2H-tetrazol-5-yl)phenyl)-5-(1H-pyrazol-4-yl)pyrazolo[1,5-a]pyridine-3-carboxamide], the IC50 against wild type c-kit amounted to 5.4 nM. Also, the efflux ratio at 2 h, 1 µM in data set [1] is 11.9.

Regarding `Cc1ccc(-c2nnn(CCOCC(F)(F)F)n2)cc1NC(=O)c1cnn2ccccc12` [Example 158, N-(2-methyl-5-(2-(2-(2,2,2-trifluoroethoxy)ethyl)-2H-tetrazol-5-yl)phenyl)pyrazolo[1,5-a]pyridine-3-carboxamide], half-maximal inhibition at wild type c-kit (IC50) required 5.7 nM.

As for `Cc1ccc(-c2nnn(C3CC(F)(F)C3)n2)cc1NC(=O)c1cnn2ccc(-c3cnn(CCO)c3)cc12` [Example 46, N-(5-(2-(3,3-difluorocyclobutyl)-2H-tetrazol-5-yl)-2-methylphenyl)-5-(1-(2-hydroxyethyl)-1H-pyrazol-4-yl)pyrazolo[1,5-a]pyridine-3-carboxamide], the IC50 against wild type c-kit stood at 0.6 nM.

`Cc1ccc(-c2nnn(C3CC3)n2)cc1NC(=O)c1cnn2ccccc12` [Example 28, N-(5-(2-cyclopropyl-2H-tetrazol-5-yl)-2-methylphenyl)pyrazolo[1,5-a]pyridine-3-carboxamide] had an IC50 against wild type c-kit of 9.1 nM.

In turn, `COC(=O)N1CC(c2cnn(-c3ccc(Cl)c(NC(=O)c4cnn5ccccc45)c3)n2)C1` [Example 193] showed an IC50 on wild type c-kit of 5.2 nM.

With `Cc1ccc(-c2nnn(CC3CCCCO3)n2)cc1NC(=O)c1cnn2ccccc12` (stereo not shown) [Example 34, N-(2-methyl-5-(2-((tetrahydro-2H-pyran-2-yl)methyl)-2H-tetrazol-5-yl)phenyl)pyrazolo[1,5-a]pyridine-3-carboxamide], on wild type c-kit, the IC50 was found to be 9.5 nM.

`Cc1ccc(-c2nnn(C[C@H]3CC3(F)F)n2)cc1NC(=O)c1cnn2ccccc12` (single isomer, unassigned) [Example 26, (R)—N-(5-(2-((2,2-difluorocyclopropyl)methyl)-2H-tetrazol-5-yl)-2-methylphenyl)pyrazolo[1,5-a]pyridine-3-carboxamide or (S)—N-(5-(2-((2,2-difluorocyclopropyl)methyl)-2H-tetrazol-5-yl)-2-methylphenyl)pyrazolo[1,5-a]pyridine-3-carboxamide] gave an IC50 against wild type c-kit of 2.4 nM.

On to `Cc1ccc(-c2nnn(C3CN(S(=O)(=O)C4(C)CC4)C3)n2)cc1NC(=O)c1cnn2ccccc12` [Example 181, N-(2-methyl-5-(2-(1-((1-methylcyclopropyl)sulfonyl)azetidin-3-yl)-2H-tetrazol-5-yl)phenyl)pyrazolo[1,5-a]pyridine-3-carboxamide], for which inhibition on wild type c-kit was half-maximal at 6.4 nM (IC50). The efflux ratio at 2 h, 1 µM in data set [1] stood at 3.1.

At wild type c-kit, `Cc1ccc(-c2nnn(C[C@@H]3CC3(F)F)n2)cc1NC(=O)c1cnn2ccc(-c3cn[nH]c3)cc12` (single isomer, unassigned) [Example 56, (S)—N-(5-(2-((2,2-difluorocyclopropyl)methyl)-2H-tetrazol-5-yl)-2-methylphenyl)-5-(1H-pyrazol-4-yl)pyrazolo[1,5-a]pyridine-3-carboxamide or (R)—N-(5-(2-((2,2-difluorocyclopropyl)methyl)-2H-tetrazol-5-yl)-2-methylphenyl)-5-(1H-pyrazol-4-yl)pyrazolo[1,5-a]pyridine-3-carboxamide] showed an IC50 of 1.1 nM. In addition, in data set [1], the efflux ratio at 2 h, 1 µM is 24.5.

A word on the IC50: it is the concentration that inhibits the measured activity by half. A higher IC50 goes with lower potency.

Source of the values: patent US20240262826A1, “WILD TYPE KIT INHIBITORS” (Blueprint Medicines Corporation, priority 2022, published 2024).
